Results published in the supplement of paper PMC12494721.
Where a name gives a salt, the structure may show the parent alone.

Experiments:
Settings in all cases: incubation time: 27 h, anaerobic, 37 °C
[1] = test system: Clostridium sporogenes DSM 1664; test: growth (OD595) fold change vs plate DMSO controls (fold change (ratio)); higher = more growth
[2] = test system: Clostridium sporogenes DSM 1664; test: fold change of Tryptamine concentration vs plate DMSO controls (fold change (ratio)); higher = more amine produced
[3] = test system: Klebsiella aerogenes DSM 30053; test: growth (OD595) fold change vs plate DMSO controls (fold change (ratio)); higher = more growth
[4] = test system: Klebsiella aerogenes DSM 30053; test: fold change of Histamine concentration vs plate DMSO controls (fold change (ratio)); higher = more amine produced
Protocol: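 Dose-response follow-up: bacteria (E. coli IAI1, K. aerogenes DSM 30053, C. sporogenes DSM 1664, R. gnavus DSM 108212) were grown anaerobically in mGAM at 37 °C for 27 h with compound at 0.6125-20 µM. Amines were measured in the whole culture by targeted LC-MS/MS. Metabolite fold change and OD595 fold change are relative to plate DMSO controls; n=2 biological replicates. OD fold changes are not clipped, so slightly negative values mean no growth.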

[5] = test system: Klebsiella aerogenes DSM 30053; test: fold change of Putrescine concentration vs plate DMSO controls (fold change (ratio)); higher = more amine produced
[6] = test system: Klebsiella aerogenes DSM 30053; test: fold change of Cadaverine concentration vs plate DMSO controls (fold change (ratio)); higher = more amine produced
[7] = test system: Ruminococcus gnavus DSM 108212; test: growth (OD595) fold change vs plate DMSO controls (fold change (ratio)); higher = more growth
[8] = test system: Ruminococcus gnavus DSM 108212; test: fold change of Tryptamine concentration vs plate DMSO controls (fold change (ratio)); higher = more amine produced
[9] = test system: Ruminococcus gnavus DSM 108212; test: fold change of 2-Phenylethylamine concentration vs plate DMSO controls (fold change (ratio)); higher = more amine produced

CC(=O)Oc1ccccc1C(=O)Nc1ncc([N+](=O)[O-])s1 [Nitazoxanide]
Settings	fold change of Tryptamine concentration, [2]	growth, [1]
0.6125 µM	1.01	1.24
1.25 µM	0.989	1.23
2.5 µM	0.993	1.29
5 µM	0.314	0.809
10 µM	0.0174	-0.0196
20 µM	0.0175	-0.0243

O=[N+]([O-])c1ccc(O)c2ncccc12 [Nitroxoline]
Settings	fold change of Cadaverine concentration, [6]	fold change of Histamine concentration, [4]	fold change of Putrescine concentration, [5]	growth, [3]
0.6125 µM	0.967	0.949	1.04	0.817
1.25 µM	0.966	0.911	1.03	0.815
2.5 µM	0.935	1.16	1.02	0.882
5 µM	0.971	0.926	1.06	0.884
10 µM	0.966	1.02	0.997	0.646
20 µM	0.977	0.852	1.01	0.584

Cc1ncc([N+](=O)[O-])n1CC(C)O (configuration not stated) [Secnidazole]
Settings	fold change of Tryptamine concentration, [2]	growth, [1]
0.6125 µM	0.901	0.982
1.25 µM	0.773	1.11
2.5 µM	0.735	1.16
5 µM	0.035	0.156
10 µM	0.026	-0.0233
20 µM	0.0204	-0.023

CC1(C)S[C@@H]2[C@H](NC(=O)[C@H](N)c3ccccc3)C(=O)N2[C@H]1C(=O)OC1OC(=O)c2ccccc21 (some centres not stated) [Talampicillin hydrochloride]
Settings	fold change of 2-Phenylethylamine concentration, [9]	fold change of Cadaverine concentration, [6]	fold change of Histamine concentration, [4]	fold change of Putrescine concentration, [5]	fold change of Tryptamine concentration, [8]	growth, [3]	growth, [7]
0.6125 µM	0.103	0.97	0.999	1.03	0.121	0.802	1.73
1.25 µM	0.105	0.967	0.862	1.05	0.116	0.804	0.81
2.5 µM	0.112	0.958	1.31	1.01	0.136	0.905	0.918
5 µM	0.1	1.03	1.27	1.08	0.13	1.1	1.33
10 µM	0.138	1.09	0.959	1.11	0.174	1.1	0.729
20 µM	0.102	1.17	0.912	1.12	0.135	0.477	0.199

C[C@]1(Cn2ccnn2)[C@H](C(=O)O)N2C(=O)C[C@H]2S1(=O)=O [Tazobactam]
Settings	fold change of Tryptamine concentration, [2]	growth, [1]
0.6125 µM	1	1.01
1.25 µM	1.01	1.05
2.5 µM	1.11	1.01
5 µM	1.08	1.01
10 µM	0.984	0.648
20 µM	0.921	0.353
